What was measured:
[1] = target: T1, human full-length glucocorticoid receptor (Homo sapiens, UniProt P04150); assay: Glucocorticoid Receptor Binding Assay (II), fluorescence polarization competitor kit; settings: 1 h, % Relative Binding Affinity to dexamethasone, read-out: GR (% RBA* @ 10 μM) (GR Binding Assay (II)b)
T1 construct: recombinantly expressed human full-length glucocorticoid receptor; purchased PanVera Co., Madison, Wis; P2816
T1 sequence (P04150 1-777): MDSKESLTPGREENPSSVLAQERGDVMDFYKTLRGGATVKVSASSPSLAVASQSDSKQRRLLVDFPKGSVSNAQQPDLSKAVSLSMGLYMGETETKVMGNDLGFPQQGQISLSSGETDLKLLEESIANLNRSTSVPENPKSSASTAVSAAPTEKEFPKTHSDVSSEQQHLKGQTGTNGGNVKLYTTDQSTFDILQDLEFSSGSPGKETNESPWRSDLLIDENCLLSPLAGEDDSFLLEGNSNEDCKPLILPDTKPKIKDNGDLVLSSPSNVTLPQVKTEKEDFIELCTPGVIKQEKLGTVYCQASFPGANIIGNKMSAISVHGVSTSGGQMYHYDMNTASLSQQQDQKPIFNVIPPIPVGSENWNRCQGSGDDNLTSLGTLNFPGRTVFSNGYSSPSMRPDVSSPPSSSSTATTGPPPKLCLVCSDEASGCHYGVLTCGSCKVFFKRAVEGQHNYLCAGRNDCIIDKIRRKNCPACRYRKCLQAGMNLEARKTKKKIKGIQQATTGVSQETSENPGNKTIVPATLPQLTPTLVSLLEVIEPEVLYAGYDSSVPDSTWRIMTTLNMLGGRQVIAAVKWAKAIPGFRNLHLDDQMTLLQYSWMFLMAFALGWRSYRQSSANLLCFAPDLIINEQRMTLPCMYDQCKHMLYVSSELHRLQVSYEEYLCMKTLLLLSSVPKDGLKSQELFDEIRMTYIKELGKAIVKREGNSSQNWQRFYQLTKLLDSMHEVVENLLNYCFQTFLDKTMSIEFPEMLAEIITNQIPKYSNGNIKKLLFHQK
Protocol: Glucocorticoid Receptor Binding Assay (II)^b
In order to measure the binding of compounds on the glucocorticoid receptor a commercially available kit was used (Glucocorticoid receptor competitor assay kit, PanVera Co., Madison, Wis., P2816). Briefly, a cell lysate containing recombinantly expressed human full-length glucocorticoid receptor was mixed with a fluorescently labeled glucocorticoid (1 nM Fluormone GS1) in the presence or absence of test compound. After one hour at room temperature, the fluorescence polarization (FP) of the samples were measured. The FP of a mixture of receptor, fluorescent probe (i.e. Fluormone GS1) and 1 mM dexamethasone represented background fluorescence or 100% inhibition, whereas, the FP of the mixture without dexamethasone was taken to be 100% binding. The percentage inhibition of test molecules were then compared to the sample with 1 mM dexamethasone and expressed as % relative binding activity with dexamethasone being 100% and no inhibition is 0%. Test molecules were analyzed in the concentration range from 2.4 nM to 40 microMolar.

[2] = target: T2, human glucocorticoid receptor (Homo sapiens, UniProt P04150); assay: Glucocorticoid Receptor Binding Assay (I), fluorescence polarization competitor kit; settings: purified human recombinant full-length GR, Fluormone GS Red
T2 construct: purified human recombinant full-length glucocorticoid receptor (2 nM); purchased Invitrogen Part #2893
T2 sequence (P04150 1-777): T1 sequence (P04150 1-777)
Protocol: Glucocorticoid Receptor Binding Assay (I)^a
In order to assess the affinity of test compounds for the human glucocorticoid receptor, a commercially available kit was used (Glucocorticoid Receptor Competitor Assay Kit, Invitrogen Part #2893). Briefly, purified human recombinant full-length glucocorticoid receptor (2 nM) was mixed with fluorescently labeled glucocorticoid (1 nM Fluormone GS Red) in the presence or absence of test compound. After two hour incubation at room temperature in the dark, the fluorescence polarization (FP) of the samples was measured. The FP of a mixture of receptor, fluorescent probe (i.e. Fluormone GS Red) and 5 μM dexamethasone represented background fluorescence or 100% inhibition, whereas, the FP of the mixture without dexamethasone (but in the presence of vehicle) was taken to be 100% binding. The percentage inhibition of test compounds were then compared to the sample with 5 μM dexamethasone and expressed as % relative binding activity with dexamethasone being 100% and no inhibition is 0%. Test compounds were analyzed in the concentration range from 8.5E-05 μM to 5 μM.

percent relative binding activity vs dexamethasone at 10 µM [1] [%]	Ki [2] [nM]	SMILES
152		CC(C)(C(=O)Nc1nccs1)C(c1ccccc1)c1ccc(N2CCOCC2)nc1 (single isomer, unassigned) [Example 20, 2,2-Dimethyl-3-(6-(4-morpholinyl)-3-pyridinyl)-3-phenyl-N-1,3-thiazol-2-ylpropanamide]
477		CC(C)(C(=O)Nc1nncs1)C(c1ccccc1)c1ccc(N2CCOCC2)nc1 (single isomer, unassigned) [Example 22, 2,2-Dimethyl-3-(6-(4-morpholinyl)-3-pyridinyl)-3-phenyl-N-1,3,4-thiadiazol-2-ylpropanamide]
6.4		CC(C)(C(=O)Nc1nncs1)C(c1cccc(F)c1)c1ccc(Br)s1 (stereo not drawn) [Example 1, 3-(5-Bromo-2-thienyl)-3-(3-fluorophenyl)-2,2-dimethyl-N-1,3,4-thiadiazol-2-ylpropanamide]
10.1		CC(C)(C(=O)Nc1nccs1)C(c1cccc(F)c1)c1ccc(Br)s1 (stereo not drawn) [Example 2, 3-(5-bromo-2-thienyl)-3-(3-fluorophenyl)-2,2-dimethyl-N-1,3-thiazol-2-ylpropanamide]
502		CC(C)(C(=O)Nc1nncs1)C(c1ccccc1)c1ccncc1 (stereo not drawn) [Example 6, 2,2-dimethyl-3-phenyl-3-(4-pyridinyl)-N-1,3,4-thiadiazol-2-ylpropanamide]
	4.11	C[C@H](C(=O)Nc1nncs1)[C@@H](c1cccc(F)c1)c1ccc(Br)s1 [Example 94, (2S,3S)-3-(5-bromo-2-thienyl)-3-(3-fluorophenyl)-2-methyl-N-1,3,4-thiadiazol-2-ylpropanamide]
	0.76	C[C@H](C(=O)Nc1nncs1)[C@H](c1cccc(F)c1)c1ccc(Br)s1 [Example 95, (2S,3R)-3-(5-bromo-2-thienyl)-3-(3-fluorophenyl)-2-methyl-N-1,3,4-thiadiazol-2-ylpropanamide]
	1.96	C[C@@H](C(=O)Nc1nncs1)[C@H](c1cccc(F)c1)c1ccc(Br)s1 [Example 97, (2R,3R)-3-(5-bromo-2-thienyl)-3-(3-fluorophenyl)-2-methyl-N-1,3,4-thiadiazol-2-ylpropanamide]
	2.44	CCN(C)C(=O)c1ccc(-c2ccc([C@H](c3cccc(F)c3)[C@H](C)C(=O)Nc3nncs3)s2)cc1 [Example 106, N-ethyl-4-(5-((1S,2S)-1-(3-fluorophenyl)-2-methyl-3-oxo-3-(1,3,4-thiadiazol-2-ylamino)propyl)-2-thienyl)-N-methylbenzamide]
	5.39	C[C@H](C(=O)Nc1nncs1)[C@@H](c1cccc(F)c1)c1ccc(-c2ccc(C(=O)N3CCOCC3)cc2)s1 [Example 108, (2S,3S)-3-(3-fluorophenyl)-2-methyl-3-(5-(4-(4-morpholinylcarbonyl)phenyl)-2-thienyl)-N-1,3,4-thiadiazol-2-ylpropanamide]
	1.91	C[C@@H](C(=O)Nc1nncs1)[C@H](c1cccc(F)c1)c1ccc(-c2ccc(C(=O)N3CCC3)c(F)c2)s1 [Example 122, (2R,3R)-3-(5-(4-(1-azetidinylcarbonyl)-3-fluorophenyl)-2-thienyl)-3-(3-fluorophenyl)-2-methyl-N-1,3,4-thiadiazol-2-ylpropanamide]
	7.16	C[C@H](C(=O)Nc1nncs1)[C@@H](c1cccc(F)c1)c1ccc(-c2ccc(C(=O)N(C)C)c(Cl)c2)s1 [Example 123, 2-chloro-4-(5-((1S,2S)-1-(3-fluorophenyl)-2-methyl-3-oxo-3-(1,3,4-thiadiazol-2-ylamino)propyl)-2-thienyl)-N,N-dimethylbenzamide]
	7.27	C[C@H](C(=O)Nc1nncs1)[C@@H](c1cccc(F)c1)c1ccc(-c2ccc(C(=O)N3CCOCC3)c(Cl)c2)s1 [Example 124, (2S,3S)-3-(5-(3-chloro-4-(4-morpholinylcarbonyl)phenyl)-2-thienyl)-3-(3-fluorophenyl)-2-methyl-N-1,3,4-thiadiazol-2-ylpropanamide]
	5.71	C[C@H](C(=O)Nc1nncs1)[C@@H](c1cccc(F)c1)c1ccc(-c2ccc(C(=O)N(C)C)cc2)s1 [Example 125, 4-(5-((1S,2S)-1-(3-fluorophenyl)-2-methyl-3-oxo-3-(1,3,4-thiadiazol-2-ylamino)propyl)-2-thienyl)-N,N-dimethylbenzamide]
	220	C[C@H](C(=O)Nc1nncs1)[C@H](c1cccc(F)c1)c1ccc(-c2ccc(C(=O)N(C)C)c(Cl)c2)s1 [Example 126, 2-chloro-4-(5-((1R,2S)-1-(3-fluorophenyl)-2-methyl-3-oxo-3-(1,3,4-thiadiazol-2-ylamino)propyl)-2-thienyl)-N,N-dimethylbenzamide]
	148	C[C@H](C(=O)Nc1nncs1)[C@H](c1cccc(F)c1)c1ccc(-c2ccc(C(=O)N3CCOCC3)c(Cl)c2)s1 [Example 127, (2S,3R)-3-(5-(3-chloro-4-(4-morpholinylcarbonyl)phenyl)-2-thienyl)-3-(3-fluorophenyl)-2-methyl-N-1,3,4-thiadiazol-2-ylpropanamide]
	277	C[C@H](C(=O)Nc1nncs1)[C@H](c1cccc(F)c1)c1ccc(-c2ccc(C(=O)N(C)C)cc2)s1 [Example 128, 4-(5-((1R,2S)-1-(3-fluorophenyl)-2-methyl-3-oxo-3-(1,3,4-thiadiazol-2-ylamino)propyl)-2-thienyl)-N,N-dimethylbenzamide]
	158	C[C@@H](C(=O)Nc1nncs1)[C@@H](c1cccc(F)c1)c1ccc(-c2ccc(C(=O)N(C)C)c(Cl)c2)s1 [Example 129, 2-chloro-4-(5-((1S,2R)-1-(3-fluorophenyl)-2-methyl-3-oxo-3-(1,3,4-thiadiazol-2-ylamino)propyl)-2-thienyl)-N,N-dimethylbenzamide]
	160	C[C@@H](C(=O)Nc1nncs1)[C@@H](c1cccc(F)c1)c1ccc(-c2ccc(C(=O)N3CCOCC3)c(Cl)c2)s1 [Example 130, (2R,3S)-3-(5-(3-chloro-4-(4-morpholinylcarbonyl)phenyl)-2-thienyl)-3-(3-fluorophenyl)-2-methyl-N-1,3,4-thiadiazol-2-ylpropanamide]
	236	C[C@@H](C(=O)Nc1nncs1)[C@@H](c1cccc(F)c1)c1ccc(-c2ccc(C(=O)N(C)C)cc2)s1 [Example 131, 4-(5-((1S,2R)-1-(3-fluorophenyl)-2-methyl-3-oxo-3-(1,3,4-thiadiazol-2-ylamino)propyl)-2-thienyl)-N,N-dimethylbenzamide]
	4.85	C[C@H](C(=O)Nc1nncs1)[C@@H](c1ccccc1)c1ccc(Br)s1 [Example 133, (2S,3S)-3-(5-bromo-2-thienyl)-2-methyl-3-phenyl-N-1,3,4-thiadiazol-2-ylpropanamide]
	1.98	C[C@@H](C(=O)Nc1nncs1)[C@H](c1ccccc1)c1ccc(Br)s1 [Example 136, (2R,3R)-3-(5-bromo-2-thienyl)-2-methyl-3-phenyl-N-1,3,4-thiadiazol-2-ylpropanamide]
	4.73	C[C@H](C(=O)Nc1nncs1)[C@@H](c1ccccc1)c1ccc(-c2ccc(C(=O)N(C)C)cc2)s1 [Example 137, N,N-dimethyl-4-(5-((1S,2S)-2-methyl-3-oxo-1-phenyl-3-(1,3,4-thiadiazol-2-ylamino)propyl)-2-thienyl)benzamide]
	3.2	CCN(C)C(=O)c1ccc(-c2ccc([C@@H](c3cccc(F)c3)[C@@H](C)C(=O)Nc3ncc(C)s3)s2)cc1 [Example 142, N-ethyl-4-(5-((1R,2R)-1-(3-fluorophenyl)-2-methyl-3-((5-methyl-1,3-thiazol-2-yl)amino)-3-oxopropyl)-2-thienyl)-N-methylbenzamide]

— patent US8222247B2, “Modulators of glucocorticoid receptor, AP-1, and/or NF-kappabeta activity and use thereof” (Bristol-Myers Squibb Company, priority 2006, dated 2012)
